System: HeLa wt cells
Assay: Immunoblot of LC3-II and SQSTM1 (autophagic flux)
Type: cell-based
Settings: 100 nM, 6 h
Procedure: For SDS PAGE and western blotting, cells were harvested by scraping, pelletized at 150 rcf and 4 °C for 5 min, washed with DPBS and quickly frozen in liquid nitrogen. Cells were lysed in lysis buffer (20 mM Tris–HCl, 150 mM NaCl, 500 µM EDTA, 1% [v/v] Triton X-100, 1 mM Na3VO4, 10 mM NaF, 2.5 mM Na4P2O7, 1X protease inhibitor cocktail [Roche, Basel, Switzerland, #4693132001]) for 30 min on ice and the lysates were cleared by centrifugation at 18,000 rcf and 4 °C for 15 min. Protein concentration was determined by Bradford assay and sample buffer was added (62.5 mM Tris, 8.6% [v/v] glycerol, 2% [w/v] SDS, 33.3 µg/mL bromophenol blue, 1% [v/v] β-mercaptoethanol). […] For CETSA analysis of TPP-TR samples, the protein concentration was determined by Pierce 660 nm Protein Assay and the protein concentration of the 36.5 °C treated sample of each treatment and replicate was used for the other nine samples of the respective sample set to display temperature-dependent total protein aggregation and precipitation. […] After separation by SDS-PAGE, proteins were transferred to PVDF membranes (Merck, Darmstadt, Germany, #IPFL00010), blocked with 5% milk powder in TBST and analyzed using the indicated primary antibodies followed by appropriate IRDye 800- or IRDye 680-conjugated secondary antibodies (LI-COR Biosciences, Lincoln, NE, USA). […]

Q: What does the source list for CCCCCC1=C/C(=C/c2[nH]c(-c3ccc[nH]3)cc2OC)N=C1C [Prodigiosin, prodigiosin]?
A: LC3-II level: accumulated; starvation-induced degradation of SQSTM1 (EBSS): blocked
